In publication PMC9403976, “Elucidating the path to Plasmodium prolyl-tRNA synthetase inhibitors that overcome halofuginone resistance” (Nature Communications, 2022):
Where “and” joins values, the source holds several entries; their conditions need not be identical. Equal entries are not always repeated.

How the values were obtained:
P. falciparum Dd2-2D4 [1] = settings: halofuginone pressure; cited from earlier work
[2] = system: HFGR-I P. falciparum (elevated proline homeostasis and PfcProRS^L482H); settings: HFGR-I vs wild-type; cited from earlier work
[3] = system: halofuginone-induced P. falciparum (elevated proline homeostasis); settings: within five generations (10 days); cited from earlier work
HuH7 cells = assay: HuH7 host hepatocyte viability (CellTiter-Fluor); assay type: cell-based, human; settings: for HuH7 Growth, dose-response point: single replicates
Procedure: (§1) HuH7 cells (Sigma, Cat#: 01042712, Lot:18H009) were cultured in DMEM + L-Glutamine (Gibco) supplemented with 10% (v/v) heat-inactivated FBS (Sigma) and 1% (v/v) antibiotic/antimycotic (Sigma). Hepatocyte cultures were maintained in a standard tissue culture incubator at 37 °C. Anopheles mosquitoes infected with luciferase-expressing P. berghei ANKA sporozoites were obtained from the Sporocore at the University of Georgia. Liver stage P. berghei assays were completed as previously described. Briefly, 4000 HuH7 cells were seeded into 384-well plates (Corning) 1 day prior to infection. […] Relative fluorescence and luminescence signal intensities were normalized to the negative control, 1% DMSO. EC50 values were determined using PRISM (V. 8.4.3–9.1.0, GraphPad) through fitting data to a dose-response curve.

[4] = system: luciferase-expressing P. berghei ANKA sporozoites; assay: P. berghei liver stage assay in HuH7 cells (luciferase, Bright-Glo); assay type: cell-based, Plasmodium berghei; settings: for Parasite Load, dose-response point: single replicates
Procedure: as §1, with “infection. Compounds (0–50 µM) were added in triplicate to wells before infection with 4000 P. berghei sporozoites.” for “infection.”

P. falciparum Dd2-2D4 [5] = assay: NCP26 resistance selection under intermittent drug pressure; assay type: cell-based, Plasmodium falciparum; settings: 10^9 parasites
Procedure: In short, parasites were treated with 4x EC50 NCP26 until no parasites were detected by giemsa staining microscopy. […] This cycle was repeated for ~50 generations (~100 days), corresponding to 5–6 cycles of drug pressure.

SMILES: O=C(CC1NCCCC1O)Cn1cnc2cc(Br)c(Cl)cc2c1=O (centres unmarked) [Halofuginone]
- generations until resistant parasites arise (P. falciparum Dd2-2D4 [1]): < 5 generations
- fold less sensitive (HFGR-I parasites) [2]: ~ 400 fold
- tolerance of halofuginone-induced bulk cultures [3]: 10–20 fold

SMILES: O=C(NC1Cc2ccccc2C1)c1nccnc1NC(=O)N1CCCCC1 [NCP26]
- EC50 (HuH7 cells; Homo sapiens, Huh-7, HuH7 cell viability, ~44 hpi): > 2.5 µM
- HuH7 Growth, dose-response point (HuH7 cells; Log[inhibitor] (M) -5.602): 6.24E+01 and 5.40E+01 and 5.94E+01
- HuH7 Growth, dose-response point (HuH7 cells; Log[inhibitor] (M) -6.000): 6.34E+01 and 6.90E+01 and 6.75E+01
- HuH7 Growth, dose-response point (HuH7 cells; Log[inhibitor] (M) -6.301): 6.99E+01 and 7.05E+01 and 6.37E+01
- HuH7 Growth, dose-response point (HuH7 cells; Log[inhibitor] (M) -6.602): 7.89E+01 and 8.13E+01 and 7.81E+01
- HuH7 Growth, dose-response point (HuH7 cells; Log[inhibitor] (M) -7.602): 9.65E+01 and 1.01E+02 and 8.52E+01
- HuH7 Growth, dose-response point (HuH7 cells; Log[inhibitor] (M) -8.602): 9.96E+01 and 1.08E+02 and 9.36E+01
- HuH7 Growth, dose-response point (HuH7 cells; Log[inhibitor] (M) -9.602): 1.01E+02 and 1.06E+02 and 1.03E+02
- HuH7 Growth, dose-response point (HuH7 cells; Log[inhibitor] (M) -9.903): 1.05E+02 and 1.11E+02 and 1.08E+02
- Parasite Load, dose-response point ([4]; Log[inhibitor] (M) -5.602): 4.50E-01 and 4.96E-01 and 3.82E-01
- Parasite Load, dose-response point ([4]; Log[inhibitor] (M) -6.000): 6.73E-01 and 1.77E+00 and 8.83E-01
- Parasite Load, dose-response point ([4]; Log[inhibitor] (M) -6.301): 2.58E+00 and 1.62E+00 and 1.38E+00
- Parasite Load, dose-response point ([4]; Log[inhibitor] (M) -6.602): 2.09E+01 and 4.21E+01 and 3.50E+01
- Parasite Load, dose-response point ([4]; Log[inhibitor] (M) -7.602): 1.02E+02 and 9.26E+01 and 8.31E+01
- Parasite Load, dose-response point ([4]; Log[inhibitor] (M) -8.602): 9.21E+01 and 5.24E+01 and 5.53E+01
- Parasite Load, dose-response point ([4]; Log[inhibitor] (M) -9.602): 7.79E+01 and 6.82E+01 and 1.12E+02
- Parasite Load, dose-response point ([4]; Log[inhibitor] (M) -9.903): 5.64E+01 and 9.94E+01 and 8.54E+01
- EC50 ([4]; Plasmodium berghei, Huh-7, HuH7 cells infected with sporozoites, ~44 hpi): 0.232 µM
- resistance to NCP26 after selection (P. falciparum Dd2-2D4 [5]; >50 generations (100 days), 2 out of 3 selections): 20-to-80 fold
- generations until resistance arises (P. falciparum Dd2-2D4 [5]; intermittent drug pressure): > 50 generations
